Test results as given in article PMC6332274, “In Silico Identification and in Vitro Activity of Novel Natural Inhibitors of Trypanosoma brucei Glyceraldehyde-3-phosphate-dehydrogenase” (Molecules, 2015).
Entries after “also recorded” stand apart in the source; their conditions may differ. Where two headings read alike, the source gives them in different places.

Experiments:
recombinant TbGAPDH = target: T1, recombinant TbGAPDH (Trypanosoma brucei brucei, UniProt P22512); experiment: TbGAPDH inhibition assay (spectrophotometric, NADH at 340 nm); format: biochemical; settings: for inhibition at 50 µM / % Inhibition at c = 50 µM: 50 µM test compound, n.i. = no inhibition at 50 µM
T1 construct: histidine tag (cleaved yes); made in house; host or cells: E. coli BL21 (DE3)
T1 sequence (P22512 whole entry): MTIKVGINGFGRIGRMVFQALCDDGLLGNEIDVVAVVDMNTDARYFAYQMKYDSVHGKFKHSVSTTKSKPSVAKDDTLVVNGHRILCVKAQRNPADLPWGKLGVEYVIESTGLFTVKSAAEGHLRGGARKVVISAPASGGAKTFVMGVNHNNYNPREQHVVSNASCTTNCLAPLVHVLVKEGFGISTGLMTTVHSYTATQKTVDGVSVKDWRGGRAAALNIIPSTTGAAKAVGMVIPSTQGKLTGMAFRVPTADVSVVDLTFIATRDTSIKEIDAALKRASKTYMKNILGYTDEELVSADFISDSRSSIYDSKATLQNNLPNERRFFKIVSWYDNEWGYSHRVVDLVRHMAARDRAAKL
Experimental: To experimentally validate the predictions of the in silico screening, a spectrophotometric assay with recombinant TbGAPDH, measuring the increase of NADH during the conversion of 3-phosophoglyceraldehyde into 1,3-bisphosphoglycerate, was used. The increase of absorbance at 340 nm was measured for 1 min after the addition of the substrate. Initially, each test compound was added in a concentration of 50 µM and the slope of the resulting linear plots of absorbance vs. time compared to that of a control recorded in the absence of an inhibitor.
In order to determine the activity of TbGAPDH, a spectrophotometric assay was used as described before. For that purpose, the increasing amount of produced NADH was measured at 340 nm with a Hitachi U-2900 UV-VIS-Spectrophotometer as a linear indicator for the activity of the catalytic protein. The activity determined without the addition of an inhibitor was set to 100%; the measured inhibitions were calculated accordingly. The assay was performed at 30 °C, in a buffer of 0.1 M TEA, 0.1 M glycine and 0.1 M EDTA with varying concentrations of the tested compounds in a total volume of 1 mL containing 7.17 µg TbGAPDH, 1.5 mM NAD^+ and 0.5 mM G-3-P. The tested inhibitors were solved in DMSO, resulting in a final concentration of 0.1%–1% of solvent in the assay solution. […] Typically, 5–7 different concentrations were measured (each of them in triplicate) to determine IC50 values, which were calculated using the software “Prism 3.00” (GraphPad) via nonlinear regression analysis. The measured concentration/effect curves are shown in Supplementary Figures S14–S18.

[1] = Cytotoxicity against mammalian cells; format: cell-based, rat
[2] = tested on: T. brucei rhodesiense (STIB 900); experiment: In vitro antitrypanosomal activity against bloodstream forms; format: cell-based; settings: Trypanosoma brucei, read-out: T. brucei rhodesiense (STIB 900) IC50
Experimental: Compounds 1–5 were tested for their in vitro activity against bloodstream forms of T. brucei rhodesiense (causative agent of East African HAT).

TbGAPDH [3] = settings: most active inhibitor of natural origin previously known; cited from earlier work
TbGAPDH [4] = experiment: Previously known TbGAPDH inhibitors (literature); format: biochemical, Trypanosoma brucei; settings: literature IC50 12 µM compared with IC50 of Compound 2
Experimental: In comparison to previously-known TbGAPDH inhibitors, the IC50 values of our compounds are quite low, so that these hits obtained from in silico screening can be considered quite strong inhibitors of the target enzyme. To our knowledge, the strongest TbGAPDH inhibitor known up to now is a synthetic adenosine derivative with an IC50 of […] [17].

[5] = tested on: L6 rat skeletal myoblasts; experiment: Cytotoxicity against mammalian cells; format: cell-based; settings: SI = IC50(cytotoxicity)/IC50(parasite), L6 vs T. brucei rhodesiense
[6] = 30 °C, 1.5 mM NAD+, 0.5 mM G-3-P
[7] = L6 rat skeletal myoblasts, mean ± margin of deviation of two independent determinations, read-out: Cytotoxicity (L6) IC50
[8] = bloodstream forms, mean ± margin of deviation of two independent determinations
[9] = 30 °C, 1.5 mM NAD+, 0.5 mM G-3-P, 5–7 concentrations in triplicate, nonlinear regression, read-out: IC50 (TbGAPDH inhibition)

C/C=C(\NC(=O)CCCCCCCCCCCCCCC(=O)O)C(=O)O [NP-019430]
inhibition at 50 µM (recombinant TbGAPDH; [6]): 45%

COc1cc([C@@H]2c3cc4c(cc3[C@H](O)[C@H]3COC(=O)[C@H]23)OCO4)cc(OC)c1OC [Podophyllotoxin, reference compound]
IC50 [1, 7]: 0.019 ± 0.002 µM

Nc1nc(N)nc(Nc2ccc([As]3SCC(CO)S3)cc2)n1 (stereo not drawn) [Melarsoprol, reference compound]
IC50 [2]: 0.005 ± 0.001 µM

CC(C)=CCc1c(O)c(CC=C(C)C)c2occ(-c3ccc(O)c(O)c3)c(=O)c2c1O [NP-013070]
inhibition at 50 µM (recombinant TbGAPDH; [6]): 33%

CCCCCCC/C=C/C=C/C(=O)NCCc1ccc(O)cc1 [NP-007496]
% Inhibition at c = 50 µM (recombinant TbGAPDH; [6]): n.i.

O=C(/C=C\c1ccc(O)cc1)NCCCCNC(=O)/C=C/c1ccc(O)cc1 [NP-015973]
% Inhibition at c = 50 µM (recombinant TbGAPDH; [6]): n.i.

COC(=O)/C=C(\C)CC[C@@]1(C)[C@H](C)CC[C@@]2(C)C(C(=O)O)=CCC[C@H]12 [monomethyl kolavate]
IC50 (TbGAPDH [3]): 12 µM
fold less potent than Compound 2 (TbGAPDH IC50) (TbGAPDH [4]): about 2.5 fold

CC(C)=CCc1c(O)c2c(c3c1OC(C)(C)C=C3)OCC(c1ccc(O)cc1O)C2=O (stereo not drawn) [NP-012278]
inhibition at 50 µM (recombinant TbGAPDH; [6]): 24%

Oc1cc(O)cc(CCC/C=C\CCCCCCCCCc2cc(O)cc(O)c2)c1 [NP-014428 (5)]
IC50 [2, 8]: 29.3 ± 6.3 µM
IC50 ([1]; rat): 15.5 ± 1.8 µM
SI (selectivity index) [5]: 0.5
IC50 (recombinant TbGAPDH; [9]): 22.8 ± 1.01 µM

COc1cc(O)c2c(=O)c(-c3c(O)cc(O)c4c(=O)cc(-c5ccc(O)cc5)oc34)c(-c3ccc(O)cc3)oc2c1 [NP-008941]
% Inhibition at c = 50 µM (recombinant TbGAPDH; [6]): n.i.

CC(C)=CCC/C(C)=C/Cc1ccc(O)c(C(=O)c2c(O)cc(C(=O)O)cc2C(=O)O)c1O [NP-011694 (1)]
IC50 [2, 8]: 39.5 ± 3.1 µM
IC50 ([1]; rat): 50.6 ± 3.8 µM
SI (selectivity index) [5]: 1.3
inhibition at 50 µM (recombinant TbGAPDH; [6]): > 50%
IC50 (recombinant TbGAPDH; [9]): 24.6 ± 1.03 µM

CC(C)=CCC/C(C)=C/Cc1ccc(O)c(C(=O)c2c(O)cc(C=O)cc2C(=O)O)c1O [NP-013378 (4)]
IC50 [2, 8]: 6.7 ± 2.2 µM
IC50 ([1]; rat): 48.9 ± 4.1 µM
SI (selectivity index) [5]: 7.3
SI (selectivity index) ([5]; listed as 4): seven
IC50 (recombinant TbGAPDH; [9]): 6.68 ± 1.04 µM

CC(C)=CCc1c2c(c3occ(-c4ccc(O)c(O)c4)c(=O)c3c1O)C=CC(C)(C)O2 [NP-005755]
inhibition at 50 µM (recombinant TbGAPDH; [6]): 44%

COc1ccc(/C=C/C(=O)c2c(OC)cc(OC)c(CC=C(C)C)c2OC)cc1 [NP-010904]
% Inhibition at c = 50 µM (recombinant TbGAPDH; [6]): n.i.

CCCC(=O)c1c(O)c(C)c(O)c(CC2=C(O)C(C)(C)C(O)=C(C(C)=O)C2=O)c1O [NP-013330 (3), flavaspidic acid AB]
IC50 [2, 8]: 17.9 ± 1.6 µM
IC50 [1, 7]: 54.2 ± 0.5 µM
SI (selectivity index) [5]: 3.0
SI (selectivity index) ([5]; listed as 3): not significantly selective; also recorded: three
IC50 (recombinant TbGAPDH): 22 ± 1.03 µM

CC(C)=CCC/C(C)=C/Cc1ccc(O)c(C(=O)c2c(O)cc(C(=O)O)cc2C=O)c1O [NP-013296 (2)]
IC50 [2, 8]: 41 ± 0.5 µM
IC50 ([1]; rat): 48.7 ± 3.8 µM
SI (selectivity index) [5]: 1.2
SI (selectivity index) ([5]; listed as 2): not significantly selective
IC50 (recombinant TbGAPDH; [9]): 4.73 ± 1.04 µM
